Assay results as given in patent US8765684B2, “Solid materials of {[(2S,5R,8S,11S)-5-benzyl-11-(3-guanidino-propyl)-8-isopropyl-7-methyl-3,6,9,12,15-pentaoxo-1,4,7,10,13-pentaaza-cyclopentadec-2-yl]-acetic acid} and methods for obtaining them” (Merck Patent GmbH, priority 2009, dated 2014).
In brackets after ≈: the same amount, converted by molar mass.

How the values were obtained:
[1] = Solid-state properties (hygroscopicity, stability, dissolution) stated in comparison with amorphous material and salts; format: physicochemical; settings: solid material; for Hygroscopicity: comparison crystalline forms vs amorphous material
[2] = Solubility of tetrahydrate Form S3 in different solvents; format: physicochemical
[3] = Competitive slurry conversion of pseudopolymorphic form and form A1 (1:1) in Water/Methanol and Water/Ethanol mixtures; format: physicochemical; settings: 1:1 pseudopolymorphic form + A1
Protocol: b) Additionally, crystalline tetrasolvates according invention and especially crystalline forms S1 and S2 can be manufactured by competitive slurry conversion experiments with a mixture of a pseudopolymorphic form (for example S1, S2, S3 or mixtures of these) with form A1 (1:1) in Water/Methanol and Water/Ethanol mixtures with different alcohol contents at different temperatures, respectively.
Approx. 20 mg of a pseudopolymorphic form (for example S1, S2, S3 or mixtures of these) and 20 mg of form A1 of Cilengitide are dispersed in 300 μl Water/alcohol mixture at 0° C. or room temperature (25° C.). The dispersion is stirred for 24 h and additionally for 3 weeks at RT (25° C.) (long-term experiment) by a magnetic stirrer and finally filtered
Approx. 20 mg of a pseudopolymorphic form (for example S1, S2, S3 or mixtures of these) and 20 mg of form A1 of Cilengitide are dispersed in 300 μl Water/alcohol mixture at 50° C. The dispersion is stirred for 24 h by a magnetic stirrer and finally filtered.
Additionally form A1 can be manufactured by competitive slurry conversion experiments with a mixture of a pseudopolymorphic form (for example S1, S2, S3 or mixtures of these) and form A1 (1:1) in Water/Methanol and Water/Ethanol mixtures with different alcohol contents at different temperatures. In the following table the conditions for the experiments leading to the pure form A1 are listed.
Approx. 20 mg of a pseudopolymorphic form (for example S1, S2, S3 or mixtures of these) and 20 mg of form A1 of Cilengitide are dispersed in 300 μl Water/alcohol mixture at 0° C., room temperature and 50° C. The dispersion is stirred for 24 h and additionally for 3 weeks at RT (25° C.) (long-term experiment) by a magnetic stirrer and finally filtered.

[4] = format: physicochemical; settings: 25° C., listed as S1
Text: Preferably, the anhydrates or ansolvates according to the invention and especially the crystalline form A1 can be characterised, alternatively or additionally, by dynamic vapour sorption experiments. The results can be obtained by standard techniques as described in Rolf Hilfiker, ‘Polymorphism in the Pharmaceutical Industry’, Wiley-VCH. Weinheim 2006 (Chapter 9: Water Vapour Sorption, and references therein). […] Eur. criteria.
Preferably, the tetrasolvates according to the invention, more preferably the tetrahydrates according to the invention and especially the crystalline form S3 can be characterised, alternatively or additionally, by dynamic vapour sorption experiments. The results can be obtained by standard techniques as described in Rolf Hilfiker, ‘Polymorphism in the Pharmaceutical Industry’, Wiley-VCH. Weinheim 2006 (Chapter 9: Water Vapour Sorption, and references therein).
Dynamic Vapor Sorption measurements are preferably obtained on a SMS DVS Intrinsic system. The results are preferably obtained by standard techniques as described by Rolf Hilfiker “Polymorphism in the Pharmaceutical Industry” Wiley-VCH Weinheim 2006 (Chapter 9: Water Vapour Sorption, and references therein.) Approx. 2-10 mg of samples are preferably weighed into an Aluminium 100 μL pan and placed in the sample incubator of the DVS instrument with microbalance. A nitrogen overall flow rate of 200 mL/min (combined dry and humid stream) is preferably used for humidification. Water vapor sorption isotherms are preferably acquired at 25° C. in the range 0% relative humidity to 98% relative humidity mostly with 10% relative humidity steps. For all relative humidity steps, an equilibrium condition of dm/dt≦0.0005 wt %/min are preferably used, with a minimum relative humidity step time of 10 minutes and a maximum relative humidity step time of 360 minutes which is preferably used as a timeout if the dm/dt criterai mentioned above is not been reached.
A SMS DVS I system is used for the dynamic vapour experiments regarding crystalline form S3. The results have been obtained by standard techniques as described in Rolf Hilfiker, ‘Polymorphism in the Pharmaceutical Industry’, Wiley-VCH. Weinheim 2006 (Chapter 9: Water Vapour Sorption, and references therein). […] During the water adsorption cycle there is shown an assembly of water molecules (ca. 10 wt%) in the lattice at elevated rh. In the second desorption cycle there is a loss of this amount of water.
(§1) A SMS DVS Intrinsic is used for the dynamic vapour experiments. The results are obtained by standard techniques as described in Rolf Hilfiker, ‘Polymorphism in the Pharmaceutical Industry’, Wiley-VCH. Weinheim 2006 (Chapter 9: Water Vapour Sorption, and references therein). […] Upon water vapour adsorption, an assembly of water molecules in the lattice is observed, with a maximum weight gain of approx. 8 wt % at elevated rh. In the second desorption cycle a total mass loss of approx. 9.9 wt % is observed. For a Cilengitide Dihydrate Di-Methanolate, the calculated Methanol content equals 9.3 wt %.
as §1, with “6.4” for “8”, “9.2” for “9.9”, “Di-Ethanolate,” for “Di-Methanolate,”, “Ethanol” for “Methanol”, “12.5” for “9.3”

[5] = Conditioning of amorphous Cilengitide under methanol atmosphere; format: physicochemical; settings: MeOH liquid phase 100 v %
Text: As still another example, conditioning of amorphous material of the compound according to formula I or hydrate forms under methanol atmosphere yielded crystalline solvates with 2 molecules methanol per molecule of the compound according to formula I.
Conditioning of amorphous Cilengitide (abbreviated: Cil; Cilengitide=Cyclo-(Arg-Gly-Asp-DPhe-NMeVal) under methanol atmosphere yielded a solvate with 2 molecules methanol per molecule Cilengitide.

[6] = Methanol vapour sorption (DVS, hydrate form to form S1); format: physicochemical
Protocol: In the respective dynamic vapor sorption experiments discussed in more detail herein using methanol vapor at 98% relative saturation for the Dihydrate-dimethanolate/crystalline form S1 at 25° C. starting with the tetrahydrate a mass gain of 9% has been obtained. This is in good agreement with the above shown results for the tetramethanolate (calculated 108.5%, i.e. 8.5% of mass gain).
Preferably, the tetrasolvates according to the invention, more preferably the Dihydrate-dimethanolate, the Dihydrate-methanolate, the Dihydrate-monoethanolate, the Dimethanolate and/or the desolvates thereof, and especially the crystalline form S1 can be characterised, alternatively or additionally, by dynamic vapour experiments using water vapour and/or methanol vapour. The results can be obtained by standard techniques as described in Rolf Hilfiker, ‘Polymorphism in the Pharmaceutical Industry’, Wiley-VCH. Weinheim 2006 (Chapter 9: Water Vapour Sorption, and references therein).
Upon water vapour adsorption, an assembly of water molecules in the lattice is observed, with a maximum weight gain of approx. 8 wt % at elevated rh. In the second desorption cycle a total mass loss of approx. 9.9 wt % is observed. For a Dihydrate Di-Methanolate of the compound of formula I, the calculated Methanol content equals 9.3 wt %. […] Methanol Vapour Sorption Isotherm (25° C.) of a hydrate form to form S1 (SMS DVS Advantage) FIG. 14.
Thus, crystalline form S1 is a crystalline Methanol solvate form or a mixed water/methanol solvate form, preferably selected from the Dihydrate-methanolate, the Dihydrate-monoethanolate, the Dimethanolate and/or the desolvates thereof, which can be obtained e.g. via Methanol Vapour Sorption, preferably via Methanol Vapour Sorption starting with a hydrate structure, such as the hydrates according to the invention and especially the tetrahydrate according to the invention, i.e crystalline form S3. […]

## CC(C)[C@H]1C(=O)N[C@@H](CCCNC(=N)N)C(=O)NCC(=O)N[C@@H](CC(=O)O)C(=O)N[C@H](Cc2ccccc2)C(=O)N1C [amorphous material, cyclo-(Arg-Gly-Asp-DPhe-NMe-Val)]
[1]; listed as amorphous forms
  Hygroscopicity: unfavourably hygroscopic
[1]; listed as amorphous solid material
  Hygroscopicity: very high hygroscopicity
[1]; comparison crystalline forms vs amorphous phase
  Physical and/or chemical (solid state) stability: low stability

## CC(C)[C@H]1C(=O)N[C@@H](CCCN=C(N)N)C(=O)NCC(=O)N[C@@H](CC(=O)O)C(=O)N[C@H](Cc2ccccc2)C(=O)N1C [crystalline form S3, cyclo-(Arg-Gly-Asp-DPhe-NMe-Val)]
[2]; solvent H2O
  solubility: 21.6 mg/mL (≈ 36.7 mM)
[2]; solvent H2O/Acetone (1:1)
  solubility: 22.7 mg/mL (≈ 38.6 mM)
[2]; solvent H2O/Acetonitrile (1:1)
  solubility: 24.3 mg/mL (≈ 41.3 mM)
[2]; solvent H2O/EtOH (1:1)
  solubility: 13 mg/mL (≈ 22.1 mM)
[2]; solvent H2O/MeOH (1:1)
  solubility: 12.8 mg/mL (≈ 21.7 mM)
[2]; solvent H2O/iPrOH (1:1)
  solubility: 22.9 mg/mL (≈ 38.9 mM)
[2]; solvent buffer pH 7.4
  solubility: 24.4 mg/mL (≈ 41.4 mM)
[2]; solvent physiological NaCl solution
  solubility: 21.1 mg/mL (≈ 35.8 mM)

## cyclo-(Arg-Gly-Asp-DPhe-NMe-Val) [crystalline form S1]
[3]; 0° C. for 1 day
  Methanol in the mixture with Water leading to form S1: 40-100 v %
[3]; RT for 3 weeks
  Methanol in the mixture with Water leading to form S1: 60-100 v %
[3]; RT for 1 day
  Methanol in the mixture with Water leading to form S1: 60-100 v %
[4]; elevated rh
  Maximum weight gain upon water vapour adsorption: approx. 8 wt %
[4]; water vapour sorption
  Mass loss in the first desorption cycle: approx. 8 wt %
  Total mass loss in the second desorption cycle: approx. 9.9 wt %
[5]
  H2O KF: 0.3 wt %
  MeOH HS-GC: 10.0 wt %
  Σ TG: 10.4 wt %
[5]; per 1 mol Cil
  H2O KF: 0.1 mol
  MeOH HS-GC: 2.1 mol
[6]; atmosphere of 100% Methanol vapour
  Thermodynamic stability of the form: thermodynamically stable form
[6]; elevated Methanol partial pressure, starting with a hydrate structure
  Methanol taken up by the sample: approx. 9 wt %
[6]; methanol vapor at 98% relative saturation, 25° C., starting with the tetrahydrate
  Mass gain: 9%
